pIC50: −log10 of the molar value.
Experiments:
JAK1 = JAK1 (Homo sapiens (Human), UniProt P23458); test: Jak Biochemical HTRF Assay, JAK1; settings: HTRF biochemical assay, GST-tagged catalytic domain; top concentration tested […]; read-out: JAK1 IC50
Description: (§1) Jak Biochemical HTRF Assay Protocol
(§2) Subsequent reagent additions employed an Agilent Bravo.

JAK2 = JAK2 (Homo sapiens (Human), UniProt O60674); test: Jak Biochemical HTRF Assay, JAK2; settings: HTRF biochemical assay, GST-tagged catalytic domain; top concentration tested […]
Description: as §1, §2

JAK1, sequence (P23458 875-1153): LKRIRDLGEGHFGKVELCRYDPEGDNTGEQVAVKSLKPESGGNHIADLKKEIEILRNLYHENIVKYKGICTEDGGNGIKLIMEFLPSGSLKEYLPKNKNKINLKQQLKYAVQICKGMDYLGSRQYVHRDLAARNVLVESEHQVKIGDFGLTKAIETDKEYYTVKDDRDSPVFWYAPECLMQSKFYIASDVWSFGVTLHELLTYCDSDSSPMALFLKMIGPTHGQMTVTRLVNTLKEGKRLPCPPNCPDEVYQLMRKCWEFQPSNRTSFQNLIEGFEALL
JAK2, sequence (O60674 849-1124): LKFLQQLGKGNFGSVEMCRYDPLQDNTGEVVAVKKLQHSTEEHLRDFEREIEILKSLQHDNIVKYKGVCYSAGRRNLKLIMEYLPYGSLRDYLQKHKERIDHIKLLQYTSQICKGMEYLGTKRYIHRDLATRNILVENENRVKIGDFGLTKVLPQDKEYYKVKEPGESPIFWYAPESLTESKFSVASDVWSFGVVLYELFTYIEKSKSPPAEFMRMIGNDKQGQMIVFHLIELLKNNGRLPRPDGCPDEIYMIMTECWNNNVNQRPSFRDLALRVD

SMILES: CC(C)(C)OC(=O)N1CCC(CC#N)(n2cc(C(N)=O)c(Nc3ccc(N4CCOCC4)nc3)n2)CC1 [Example 12-4, tert-butyl 4-(4-carbamoyl-3-{[6-(morpholin-4-yl)aphthal-3-yl]amino}-1H-pyrazol-1-yl)-4-(cyanomethyl)piperidine-1-carboxylate]
- pIC50 (JAK1): 9.10
- pIC50 (JAK2): 8.52

SMILES: CC(C)(C)OC(=O)N1CCC(CC#N)(n2cc(C(N)=O)c(Nc3ccc(F)nc3)n2)CC1 [Example 12-5, tert-butyl 4-{4-carbamoyl-3-[(6-fluoropyridin-3-yl)amino]-1H-pyrazol-1-yl}-4-(cyanomethyl)piperidine-1-carboxylate]
- pIC50 (JAK1): 9.10
- pIC50 (JAK2): 8.15

SMILES: CC(C)(C)OC(=O)N1CCC(CC#N)(n2cc(C(N)=O)c(Nc3ccnnc3)n2)CC1 [Example 12-6, tert-butyl 4-[4-carbamoyl-3-(pyridazin-4-ylamino)-1H-pyrazol-1-yl]-4-(cyanomethyl)piperidine-1-carboxylate]
- pIC50 (JAK1): 9.40
- pIC50 (JAK2): 7.82

SMILES: CC(C)(C)OC(=O)N1CCC(CC#N)(n2cc(C(N)=O)c(Nc3ccc4c(c3)CNC4=O)n2)CC1 [Example 12-7, tert-butyl 4-{4-carbamoyl-3-[(1-oxo-2,3-dihydro-1H-isoindol-5-yl)amino]-1H-pyrazol-1-yl}-4-(cyanomethyl)piperidine-1-carboxylate]
- pIC50 (JAK1): 10.00
- pIC50 (JAK2): 8.70

SMILES: CC(C)(C)OC(=O)N1CCC(CC#N)(n2cc(C(N)=O)c(Nc3ccncn3)n2)CC1 [Example 13-1, tert-Butyl 4-(4-carbamoyl-3-(pyrimidin-4-ylamino)-1H-pyrazol-1-yl)-4-(cyanomethyl)piperidine-1-carboxylate]
- pIC50 (JAK1): 8.52
- pIC50 (JAK2): 6.86

SMILES: Cc1cccc(Nc2nn(C3(CC#N)CCN(C(=O)OC(C)(C)C)CC3)cc2C(N)=O)n1 [Example 13-2, tert-butyl 4-(4-carbamoyl-3-(6-methylpyridin-2-ylamino)-1H-pyrazol-1-yl)-4-(cyanomethyl)piperidine-1-carboxylate]
- pIC50 (JAK1): 7.89
- pIC50 (JAK2): 6.00

SMILES: CC(C)(C)OC(=O)N1CCC(CC#N)(n2cc(C(N)=O)c(Nc3ccccn3)n2)CC1 [Example 13-3, tert-butyl 4-(4-carbamoyl-3-(pyridin-2-ylamino)-1H-pyrazol-1-yl)-4-(cyanomethyl)piperidine-1-carboxylate]
- pIC50 (JAK1): 8.10
- pIC50 (JAK2): 6.33

SMILES: CC(C)(C)OC(=O)N1CCC(CC#N)(n2cc(C(N)=O)c(Nc3ccc(F)cn3)n2)CC1 [Example 13-4, tert-butyl 4-(4-carbamoyl-3-(5-fluoropyridin-2-ylamino)-1H-pyrazol-1-yl)-4-(cyanomethyl)piperidine-1-carboxylate]
- pIC50 (JAK1): 8.40
- pIC50 (JAK2): 6.74

SMILES: CC(C)(C)OC(=O)N1CCC(CC#N)(n2cc(C(N)=O)c(Nc3cc(F)ccn3)n2)CC1 [Example 13-5, tert-butyl 4-(4-carbamoyl-3-(4-fluoropyridin-2-ylamino)-1H-pyrazol-1-yl)-4-(cyanomethyl)piperidine-1-carboxylate]
- pIC50 (JAK1): 7.82
- pIC50 (JAK2): 6.04

SMILES: CC(C)(C)OC(=O)N1CCC(CC#N)(n2cc(C(N)=O)c(Nc3cccnn3)n2)CC1 [Example 13-6, tert-butyl 4-(4-carbamoyl-3-(pyridazin-3-ylamino)-1H-pyrazol-1-yl)-4-(cyanomethyl)piperidine-1-carboxylate]
- pIC50 (JAK1): 7.59
- pIC50 (JAK2): 6.75

SMILES: CC(C)(C)OC(=O)N1CCC(CC#N)(n2cc(C(N)=O)c(Nc3cnccn3)n2)CC1 [Example 13-7, tert-butyl 4-(4-carbamoyl-3-(pyrazine-2-ylamino)-1H-pyrazol-1-yl)-4-(cyanomethyl)piperidine-1-carboxylate]
- pIC50 (JAK1): 8.10
- pIC50 (JAK2): 6.68

SMILES: Cc1cncc(Nc2nn(C3(CC#N)CCN(C(=O)OC(C)(C)C)CC3)cc2C(N)=O)n1 [Example 13-8, tert-butyl 4-(4-carbamoyl-3-(6-methylpyrazine-2-ylamino)-1H-pyrazol-1-yl)-4-(cyanomethyl)piperidine-1-carboxylate]
- pIC50 (JAK1): 8.05
- pIC50 (JAK2): 6.75

SMILES: Cc1cc(Nc2nn(C3(CC#N)CCN(C(=O)OC(C)(C)C)CC3)cc2C(N)=O)nc(C)n1 [Example 13-10, tert-butyl 4-(4-carbamoyl-3-(2,6-dimethylpyrimidin-4-ylamino)-1H-pyrazol-1-yl)-4-(cyanomethyl)piperidine-1-carboxylate]
- pIC50 (JAK1): 8.22
- pIC50 (JAK2): 6.75

SMILES: Cc1cc(Nc2nn(C3(CC#N)CCN(C(=O)OC(C)(C)C)CC3)cc2C(N)=O)ncn1 [Example 13-11, tert-butyl 4-(4-carbamoyl-3-(6-methylpyrimidin-4-ylamino)-1H-pyrazol-1-yl)-4-(cyanomethyl)piperidine-1-carboxylate]
- pIC50 (JAK1): 8.30
- pIC50 (JAK2): 6.90

SMILES: Cc1noc(C)c1-c1ccc(Nc2nn(C3(CC#N)CCN(C(=O)OC(C)(C)C)CC3)cc2C(N)=O)cc1 [Example 14, tert-Butyl 4-(4-carbamoyl-3-{[4-(3,5-dimethylisoxazol-4-yl)phenyl]amino}-1H-pyrazol-1-yl)-4-(cyanomethyl)piperidine-1-carboxylate]
- pIC50 (JAK1): 8.00
- pIC50 (JAK2): 7.42

SMILES: CC(C)(C)OC(=O)N1CCC(CC#N)(n2cc(C(N)=O)c(Nc3cccc(-c4ccc(Cl)cc4)c3)n2)CC1 [Example 15-1, tert-Butyl 4-{4-carbamoyl-3-[(4′-chlorobiphenyl-3-yl)amino]-1H-pyrazol-1-yl}-4-(cyanomethyl)piperidine-1-carboxylate]
- pIC50 (JAK1): 6.83
- pIC50 (JAK2): 5.83

SMILES: CC(C)(C)OC(=O)N1CCC(CC#N)(n2cc(C(N)=O)c(Nc3cccc(-c4ccc(F)cc4)c3)n2)CC1 [Example 15-2, tert-butyl 4-{4-carbamoyl-3-[(4′-fluorobiphenyl-3-yl)amino]-1H-pyrazol-1-yl}-4-(cyanomethyl)piperidine-1-carboxylate]
- pIC50 (JAK1): 7.29
- pIC50 (JAK2): 5.96

SMILES: CC(C)(C)OC(=O)N1CCC(CC#N)(n2cc(C(N)=O)c(Nc3cccc(-c4ccccc4)c3)n2)CC1 [Example 15-3, tert-butyl 4-[3-(biphenyl-3-ylamino)-4-carbamoyl-1H-pyrazol-1-yl]-4-(cyanomethyl)piperidine-1-carboxylate]
- pIC50 (JAK1): 6.47
- pIC50 (JAK2): 5.98

SMILES: COc1ccc(-c2cccc(Nc3nn(C4(CC#N)CCN(C(=O)OC(C)(C)C)CC4)cc3C(N)=O)c2)cc1 [Example 15-4, tert-butyl 4-{4-carbamoyl-3-[(4′-methoxybiphenyl-3-yl)amino]-1H-pyrazol-1-yl}-4-(cyanomethyl)piperidine-1-carboxylate]
- pIC50 (JAK1): 7.39
- pIC50 (JAK2): 6.02

SMILES: CC(C)(C)OC(=O)N1CCC(CC#N)(n2cc(C(N)=O)c(Nc3cccc(-c4ccc(O)cc4)c3)n2)CC1 [Example 15-5, tert-butyl 4-{4-carbamoyl-3-[(4′-hydroxybiphenyl-3-yl)amino]-1H-pyrazol-1-yl}-4-(cyanomethyl)piperidine-1-carboxylate]
- pIC50 (JAK1): 7.85
- pIC50 (JAK2): 6.53

SMILES: Cc1ccc(-c2cccc(Nc3nn(C4(CC#N)CCN(C(=O)OC(C)(C)C)CC4)cc3C(N)=O)c2)cc1 [Example 15-6, tert-butyl 4-{4-carbamoyl-3-[(4′-methylbiphenyl-3-yl)amino]-1H-pyrazol-1-yl}-4-(cyanomethyl)piperidine-1-carboxylate]
- pIC50 (JAK1): 7.07
- pIC50 (JAK2): 5.83

Reference: patent publication US9328099B2, “Cyanomethylpyrazole carboxamides as janus kinase inhibitors” (Merck Sharp & Dohme Corp., priority 2011, dated 2016)
